From patent US9073858B2, “Methods of targeted drug development” (priority 2010, dated 2015)
Values joined by “and” are separate entries in the source; they are usually repeats but may differ in a detail not shown here. Identical values can stand only once. Like-named read-outs stand apart in the source and are kept apart here.

Assays:
[1] = Stability on incubation with human liver microsomes (HLM); type: in vitro ADME; conditions: percentage left after incubation with human liver microsomes for 30 minutes
Procedure: (§1) Stability of hydroxyquinoline analogs were determined (see e.g., TABLE 18). MLM represents the percentage left after incubation with mouse liver microsomes for 30 minutes. HLM represents the percentage left after incubation with human liver microsomes for 30 minutes.
(§2) Stability of analogs having a benzaldehyde derived ring were determined (see e.g., TABLE 18). MLM represents the percentage left after incubation with mouse liver microsomes for 30 minutes. HLM represents the percentage left after incubation with human liver microsomes for 30 minutes.

[2] = Stability on incubation with mouse liver microsomes (MLM); type: in vitro ADME; conditions: percentage left after incubation with mouse liver microsomes for 30 minutes
Procedure: as §1, §2

HT-29 cells = test: HT-29 Cell Proliferation Assay (MTT); type: cell-based
Procedure: Cell proliferation is determined using the MTT assay. The MTT cell proliferation assay is a colorimetric assay system which measures the reduction of a tetrazolium component (MTT) into an insoluble formazan product by the mitochondria of viable cells. After incubation of the cells with the MTT reagent, DMSO is added to solubilize the colored crystals and the samples read at a wavelength of 560 nm. The amount of color produced is directly proportional to the number of viable cells.
3-(4,5-Dimethylthiazol-2-yl)-2,5-diphenyltetrazolium Bromide (MTT) dye (Aesar, cat no. L11939) was prepared at 5 mg/ml in PBS. To each well, 20 μl of MTT solution was added to existing media and mixed thoroughly with 5 mins of gentle shaking at room temperature. Plates were incubated at 37° C., 5% CO2 for approximately 2 hrs. After 2-3 hrs incubation, media was aspirated out and plates were patted dry. […] Plates were incubated at 37° C., 5% CO2 for 10 min and mix thoroughly with 5 mins of gentle shaking at room temperature. Plates were read on the PolarStar plate reader at 560 nm. Percent (%) inhibition was calculated as 100%−(OD560 nm experimental-blank)×100%/OD560 nm control-blank. Blank=wells+serum free media+0.5% DMSO. Experimental=wells+cells+treatment+0.5% DMSO. Control=wells+cells+0.5% DMSO. IC50 values were calculated in GraphPad Prism using non-linear regression curve fitting. All statistical analyses was done either in GraphPad Prism or Microsoft Excel.
Briefly, compounds are added to cells plated in 96-well plates. […] The effect of the compounds on cell proliferation is analyzed using GraphPad Prism.
HT-29 cells are a colon cancer cell line that is utilized to assess the ability of compounds to inhibit the proliferation of cells in tumors of the colon.
For the HT-29 cell proliferation assay, on day 1, HT-29 cells are seeded at 3,000 cells/well in 100 μl media containing 10% FBS, 1× Pen-Strep, and 1× L-Glutamine in 96 well, tissue culture-treated plates. […] Working solutions of compounds were prepared (at […] in 100% DMSO). To 200 μl media, 20 μl of a 5× compound (diluted in plain media) was added for a final DMSO concentration of 0.5%. […] On day 5, plates were analyzed for cell growth using the MTT assay.

| HLM % Remaining@ 30 Min [1] | MLM % Remaining@ 30 Min [2] | Structure (SMILES) | other results |
| --- | --- | --- | --- |
| 50% | 13% | COc1ccc(C(Nc2cccc(C)n2)c2ccc3cccnc3c2O)cc1O (centres unmarked) [AD4-12909] |  |
| 38% | 10% | Cc1ccnc(NC(c2ccc(Cl)cc2Cl)c2ccc3cccnc3c2O)c1 (centres unmarked) [AD4-12912] |  |
| 53% | 11% | Cc1ccnc(NC(c2ccc(Cl)c(Cl)c2)c2ccc3cccnc3c2O)c1 (centres unmarked) [AD4-12917] |  |
| 61% | 41% | Cc1cccc(NC(c2cc(Cl)ccc2Cl)c2ccc3cccnc3c2O)n1 (centres unmarked) [AD4-12955] |  |
| 42% | 15% | Cc1cccc(NC(c2ccc3cccnc3c2O)c2c(F)cccc2Cl)n1 (centres unmarked) [AD4-12959] |  |
| 36% | 5% | Cc1cccc(NC(c2ccc(C)c(F)c2F)c2ccc3ccc(C)nc3c2O)n1 (centres unmarked) [AD4-13022] |  |
| 76% | 77% | Oc1c(C(Nc2ccc(C(F)(F)F)cn2)c2ccc(F)cc2F)ccc2cccnc12 (centres unmarked) [AD4-13029] |  |
| 77% | 26% | Oc1c(C(Nc2cc(Cl)ccn2)c2ccc(F)cc2F)ccc2cccnc12 (centres unmarked) [AD4-13045] |  |
| 72% | 40% | Oc1c(C(Nc2ccc(C(F)(F)F)nc2)c2ccc(C(F)(F)F)c(F)c2)ccc2cccnc12 (centres unmarked) [AD4-13051] |  |
| 88% | 85% | Oc1c(C(Nc2ccc(C(F)(F)F)cn2)c2cc(C(F)(F)F)ccc2Cl)ccc2cccnc12 (centres unmarked) [AD4-13056] |  |
| 80% | 42% | Oc1c(C(Nc2ccc(C(F)(F)F)nc2)c2ccc(C(F)(F)F)cc2)ccc2cccnc12 (centres unmarked) [AD4-13063] |  |
| 83% | 47% | Oc1c(C(Nc2ccc(C(F)(F)F)nc2)c2ccc(C(F)(F)F)cc2F)ccc2cccnc12 (centres unmarked) [AD4-13065] |  |
| 89% | 46% | Oc1c(C(Nc2ccc(Cl)cn2)c2ccc(Cl)c(C(F)(F)F)c2)ccc2cccnc12 (centres unmarked) [AD4-13067] |  |
| 64% | 13% | Cc1cccc(NC(c2cc(Cl)cc(Cl)c2)c2ccc3ccc(C)nc3c2O)n1 (centres unmarked) [AD4-13075] |  |
| 70% | 28% | Cc1cccc(NC(c2cc(Cl)cc(Cl)c2)c2cc(Cl)c3cccnc3c2O)n1 (centres unmarked) [AD4-13076] |  |
| 94% | 60% | Cc1cc(NC(c2cc(Cl)cc(Cl)c2)c2ccc3cccnc3c2O)ncc1Cl (centres unmarked) [AD4-13122] |  |
| 94% | 67% | Cc1ccc2ccc(C(Nc3ncc(Cl)cc3C)c3ccc(Cl)cc3Cl)c(O)c2n1 (centres unmarked) [AD4-13200] |  |

The next lines start with the compound.

| Structure (SMILES) | HLM % Remaining@ 30 Min [1] | MLM % Remaining@ 30 Min [2] | other results |
| --- | --- | --- | --- |
| Cc1ccnc(NC(c2ccccc2Cl)c2ccc3cccnc3c2O)c1 (centres unmarked) [AD4-12907] | 14% | 5% |  |
| Oc1c(C(Nc2cccnc2)c2cccc(Cl)c2Cl)ccc2cccnc12 (centres unmarked) [AD4-12908] | 48% | 6% |  |
| Cc1cccc(NC(c2ccc(Cl)cc2Cl)c2ccc3cccnc3c2O)n1 (centres unmarked) [AD4-12911] | 57% | 17% |  |
| Cc1cccc(NC(c2cc(Cl)cc(Cl)c2)c2ccc3cccnc3c2O)n1 (centres unmarked) [AD4-12913] | 61% | 41% |  |
| Cc1ccnc(NC(c2cc(Cl)cc(Cl)c2)c2ccc3cccnc3c2O)c1 (centres unmarked) [AD4-12915] | 71% | 25% |  |
| Cc1cccc(NC(c2ccc(Cl)c(Cl)c2)c2ccc3cccnc3c2O)n1 (centres unmarked) [AD4-12916] | 80% | 26% |  |
| Cc1cccc(NC(c2ccc3cccnc3c2O)c2c(F)c(F)cc(F)c2F)n1 (centres unmarked) [AD4-12918] | 51% | 15% |  |
| Cc1cccc(NC(c2cc(Cl)cc(Cl)c2Cl)c2ccc3cccnc3c2O)n1 (centres unmarked) [AD4-13023] | 95% | 60% |  |
| Cc1cccc(NC(c2ccc(F)cc2Cl)c2ccc3cccnc3c2O)n1 (centres unmarked) [AD4-13024] | 47% | 20% |  |
| Cc1cc(Cl)cnc1NC(c1ccc(C(F)(F)F)c(F)c1)c1ccc2cccnc2c1O (centres unmarked) [AD4-13043] | 98% | 77% |  |
| Oc1c(C(Nc2ccc(Cl)cn2)c2ccc(C(F)(F)F)cc2)ccc2cccnc12 (centres unmarked) [AD4-13053] | 97% | 46% |  |
| Oc1c(C(Nc2ccc(Cl)cn2)c2ccc(Cl)c(Cl)c2)ccc2cccnc12 (centres unmarked) [AD4-13054] | 80% | 46% |  |
| Oc1c(C(Nc2ccc(Cl)cn2)c2ccc(C(F)(F)F)c(F)c2)ccc2cccnc12 (centres unmarked) [AD4-13055] | 100% | 57% |  |
| Cc1cc(Cl)cnc1NC(c1cc(C(F)(F)F)ccc1Cl)c1ccc2cccnc2c1O (centres unmarked) [AD4-13058] | 75% | 60% |  |
| Cc1cc(Cl)cnc1NC(c1ccc2cccnc2c1O)c1c(F)c(F)cc(F)c1F (centres unmarked) [AD4-13059] | 92% | 64% |  |
| Oc1c(C(Nc2ccc(F)cn2)c2ccc(C(F)(F)F)c(F)c2)ccc2cccnc12 (centres unmarked) [AD4-13061] | 93% | 58% |  |
| Cc1cc(Cl)cnc1NC(c1ccc(F)cc1F)c1ccc2cccnc2c1O (centres unmarked) [AD4-13068] | 96% | 46% |  |
| Oc1c(C(Nc2ccc(Cl)cn2)c2cc(Cl)cc(Cl)c2)ccc2cccnc12 (centres unmarked) [AD4-13094] | 85% | 52% |  |
| Cc1cc(NC(c2ccc(C(F)(F)F)c(F)c2)c2ccc3cccnc3c2O)ncc1Cl (centres unmarked) [AD4-13106] | 86% | 42% |  |
| Cc1cc(NC(c2cccc(C(F)(F)F)c2)c2ccc3cccnc3c2O)ncc1Cl (centres unmarked) [AD4-13107] | 83% | 28% |  |
| Cc1cc(NC(c2cc(Cl)cc(Cl)c2)c2ccc3cccnc3c2O)ncc1F (centres unmarked) [AD4-13114] | 99% | 40% |  |
| Cc1cc(NC(c2ccc(Cl)c(Cl)c2)c2ccc3cccnc3c2O)ncc1Cl (centres unmarked) [AD4-13166] | 100% | 71% |  |
| Cc1nc(NC(c2ccc(Cl)c(Cl)c2)c2ccc3cccnc3c2O)c(Cl)cc1Cl (centres unmarked) [AD4-13202] | 100% | 97% |  |
| CS(=O)(=O)CCNCc1ccc(-c2ccc3ncnc(Nc4ccc(OCc5cccc(F)c5)c(Cl)c4)c3c2)o1 [Tykerb, reference compound] |  |  | IC50 (HT-29 cells; Homo sapiens, HT-29, 48 h, read-out: IC50, Comparison of Incubation Times in HT-29 Cell Proliferation Assay): 2.7 µM; IC50 (HT-29 cells; Homo sapiens, HT-29, 72 h, read-out: IC50, Comparison of Incubation Times in HT-29 Cell Proliferation Assay): 2.3 µM; IC50 (HT-29 cells; Homo sapiens, HT-29, read-out: HT-29 Cell Proliferation Assay Results (IC50)): 5 µM; IC50 (HT-29 cells; Homo sapiens, HT-29, read-out: IC50 from dose-response curves of FIG. 11, HT-29 cells): 2.7 µM; IC50 (HT-29 cells; read-out: HT-29 Cell Proliferation Assay Results (IC50)): 5.1 µM and 8.5 µM and 9.2 µM; IC50 (HT-29 cells; read-out: IC50, Comparison of Incubation Times in HT-29 Cell Proliferation Assay): 4.4 µM and 4.2 µM |
